Values of other authors, collected in patent US8623418B2, “Pharmaceutical composition” (Alpharma Pharmaceuticals LLC, priority 2007, dated 2014).

Conditions: in vivo

For `O=C1CC[C@@]2(O)[C@H]3Cc4ccc(O)c5c4[C@@]2(CCN3CC2CC2)[C@H]1O5` [naltrexone], the “parent drug and metabolites excreted by the kidney” value is given as 53-79 % of the dose.
